# Test results taken from ChEMBL document CHEMBL5052840, “Pharmaceutical compounds and therapeutic methods” (2020).
# Tests used:
# Assay type in all cases: ADME, organism-based
# [1] = Brain concentration in male C57BL/6 mouse at 10 mg/kg, iv administered as single dose measured at 0.08 hrs measured by LC/MS-MS analysis; settings: read-out: Drug uptake
# [2] = Brain concentration in male C57BL/6 mouse at 10 mg/kg, po administered as single dose measured at 12 hrs measured by LC/MS-MS analysis; settings: read-out: Drug uptake
# [3] = Ratio of drug level in male C57BL/6 mouse brain to plasma at 10 mg/kg, ip administered as single dose measured at 0.35 hrs measured by LC/MS-MS analysis; settings: read-out: BPR
# [4] = Ratio of drug level in male C57BL/6 mouse brain to plasma at 10 mg/kg, ip administered as single dose measured at 0.08 hrs measured by LC/MS-MS analysis; settings: read-out: BPR
# [5] = Brain concentration in male C57BL/6 mouse at 10 mg/kg, ip administered as single dose measured at 24 hrs measured by LC/MS-MS analysis; settings: read-out: Drug uptake
# [6] = Brain concentration in male C57BL/6 mouse at 10 mg/kg, po administered as single dose measured at 6 hrs measured by LC/MS-MS analysis; settings: read-out: Drug uptake
# [7] = Brain concentration in male C57BL/6 mouse at 10 mg/kg, ip administered as single dose measured at 0.35 hrs measured by LC/MS-MS analysis; settings: read-out: Drug uptake
# [8] = Plasma concentration in male C57BL/6 mouse at 10 mg/kg, iv administered as single dose measured at 3 hrs measured by LC/MS-MS analysis
# [9] = Plasma concentration in male C57BL/6 mouse at 10 mg/kg, po administered as single dose measured at 3 hrs measured by LC/MS-MS analysis
# [10] = Plasma concentration in male C57BL/6 mouse at 10 mg/kg, po administered as single dose measured at 0.08 hrs measured by LC/MS-MS analysis
# [11] = Brain concentration in male C57BL/6 mouse at 10 mg/kg, ip administered as single dose measured at 3 hrs measured by LC/MS-MS analysis; settings: read-out: Drug uptake
# [12] = Plasma concentration in male C57BL/6 mouse at 10 mg/kg, iv administered as single dose measured at 0.08 hrs measured by LC/MS-MS analysis
compound,measurement,setting,value
Cc1nc2ccccn2c1-c1csc(Nc2ccc3c(c2)OC(F)(F)O3)n1.Cl,concentration at 0.08 h,[1],1660 ng/g
same,concentration at 12 h,[2],3.9 ng/g
same,Kp at 0.35 h,[3],0.96
same,Kp at 0.08 h,[4],1.05
same,concentration at 24 h,[5],6.21 ng/g
same,concentration at 6 h,[6],4.52 ng/g
same,concentration at 0.35 h,[7],680 ng/g
same,concentration at 3 h,[8],5.64 ng/mL
same,concentration at 3 h,[9],3.35 ng/mL
same,concentration at 0.08 h,[10],175 ng/mL
same,concentration at 3 h,[11],558 ng/g
same,concentration at 0.08 h,[12],1580 ng/mL
